The target in this test is T1, connexin hCx26 (Homo sapiens, UniProt P29033).
T1 construct: made in house; host or cells: E. coli Top10
As to the kind of experiment: Permeation (gating activity) assay with ion channel protein in lipid membrane vesicles, fluorescence detection of Lucifer Yellow release. It is filed as biochemical. To be noted: for inhibitory effect: concentration range in which inhibition of gating activity was shown, same experimental setup as for carbenoxolone, vesicles adjusted to 50 µM Ca^2+, triggered by EDTA addition or heat pulse. Here is the method: Lipid membrane vesicles are generated by resuspending a POPC lipid film in 150 mM sodium chloride, 10 mM Tris-HCl, pH 8, containing Lucifer Yellow as a replacement for the cation species permeated by the exemplary ion channel protein.
Following centrifugation, the supernatant is removed and vesicles are suspended in the same medium for 10 minutes. As the ion channel protein, connexin hCx26, reconstituted to its hexameric form after expression in the E.coli strain Top10 (Invitrogen), using the expression plasmid pTrcHisTOPO (available from Invitrogen, Germany) containing the hCx26 gene under the control of a trc-promoter. The gene sequence is accessible at GenBank under accession number NP 003995. Cultivation was in LB-medium containing ampicillin as the selection marker at 37 °C.
For incorporation of ion channel protein, 250 µg/mL were solubilised in 30 mM octylglucoside, 150 mM sodium chloride, 10 mM Tris-HCl, pH 8 and added to 1 mL lipid membrane vesicle suspension (10 mg POPC/mL). After incubation for 1 to 12 hours under mild agitation at 4 °C, detergent was removed by dialysis for two days at 4 °C in 150 mM sodium chloride, 10 mM Tris-HCl, pH 8, including three changes of buffer volume. Finally, the vesicles were transferred by dialysis against buffer into 150 mM sodium chloride, 10 mM Tris-HCl, pH 8 at 4 °C for removal of the ion species, namely the replacement Lucifer Yellow or the physiologically permeated ion potassium, which are permeated by the ion channel protein present. […]
Starting at a basic temperature of 4 °C, the microtiter plate was heated incrementally by steps of 2 °C each using a thermostat, with intermediate or permanent measurement of fluorescence emission under irradiation at the excitation wavelength.
From a comparison of the increase of fluorescence at increasing temperatures of a reaction composition containing the effector to that measured for an identical composition, except for the absence of effector, allows to characterize the effector at its given concentration in the assay, e.g. as an inhibitor, activator or modulator of the gating activity. […]

Take cobalt ions: the inhibitory effect entry is “millimolar to micromolar range”.

Turning to `CC1(C)[C@@H](OC(=O)CCC(=O)O)CC[C@]2(C)[C@H]3C(=O)C=C4[C@@H]5C[C@@](C)(C(=O)O)CC[C@]5(C)CC[C@@]4(C)[C@]3(C)CC[C@@H]12` [carbenoxolone], the “concentration dependency of gating activity” value (carbenoxolone up to final concentrations of 10 mM, plate at 28 °C, result shown graphically only (Figures 9 and 10)) is given as “inhibitory effect”.

With `CCCCCCCO` [heptanol], the inhibitory effect entry is reported as “nanomolar to picomolar range”.

For the origin of these results see patent EP2054729B1, “PROCESS AND APPARATUS FOR ION CHANNEL CHARACTERIZATION” (Universität Hannover, priority 2006, dated 2008).
